Measurements taken from patent publication US10711002B2, “Purine compounds and method for the treatment of cancer” (THE ROYAL INSTITUTION FOR THE ADVANCEMENT OF …, priority 2016, dated 2020).

Tests used:
cell cycle = experiment: Cell cycle analysis (FACS, propidium iodide staining); assay type: cell-based
Method: Cell cycles were synchronized prior to treatment through overnight serum deprivation. After treatment, cells were fixed and permeabilized using BD Cytofix/Cytoperm reagent (BD Bioscience), washed with PBS, and treated with 100 μg/ml Bovine Pancreas RNase A (US Biological). Cells were then stained with 25 μg/ml propidium iodide (Sigma) for 15 minutes and then immediately analyzed by flow cytometry using BD FACScalibur. The data was analyzed using FCS Express software.
It was observed during Compound 1 treatment that the targeting effect against stem-like cells is visibly associated with morphological changes resembling cell polyploidization, the accumulation of multiple DNA copies in a cell. This biological phenomenon sometimes occur as part of cell differentiation and is often associated with disruption of normal cell cycle. The identification of Aurora kinases (described below) as targets of Compound 1 supports the possible impact on cell division. Therefore the effect of Compound 1 on cell cycle using FACS analysis to measure propidium iodide staining was investigated.

[1] = system: RENCA (renal adenocarcinoma); experiment: In vivo primary tumor growth, subcutaneous implant; parameters: species or system Balb/c mice
Excerpt: In vivo studies were approved by McGill Animal Care Committee. Cells growing in exponential phase of growth (1×10^6 cells/mouse) were transplanted into the mammary fat pad of female SCID (MDA231/M) or Balb/c (4T1) mice. Mia-PaCa cells and RENCA cells were implanted subcutaneously in SCID or Balb/c mice respectively. When primary tumors became palpable mice were randomized and blindly assigned treatment groups. Treatment was given PO for 4 cycles (3 times a week: day 1, day 3, day 5) (n=8-10 mice per condition). Control mice received the vehicle alone (1% DMSO in physiologic solution). […] Tumor size was measured using a caliper. At the study termination (60-90 days) primary tumors were excised and weighted. The lungs were fixed in 10% Bouin's fixative and lung surface metastases were counted using a stereomicroscope.

## O=c1c2ccccc2[se]n1-c1nc(NC2CCCCC2)c2nc[nH]c2n1 [Compound 1]
Cell cycle
  accumulation of polyploidic cells: induces a dose-dependent accumulation of polyploidic cells

## O=c1c2ccccc2[se]n1-c1nc(N[C@H]2CC[Se]C2)c2nc[nH]c2n1 [Compound 4]
[1]; RENCA subcutaneous in Balb/c mice, PO
  Primary tumor weight (% inhibition vs. control): (34-55%)
[1]; mouse, in vivo
  renal adenocarcinoma cell (RENCA) growth in vivo: able to inhibit
